Assay results reported in patent US20240382409A1, “COMPOSITION FOR ANTI-AGING AND SKIN IMPROVEMENT, COMPRISING COMPLEX OF INDIAN GOOSE-BERRY EXTRACT AND BARLEY SPROUT EXTRACT (lB COMPLEX) AS ACTIVE INGREDIENT” (HLSCIENCE CO., LTD, priority 2021, published 2024).
Converted amounts (≈) assume the structure as drawn.

Test: Anti-oxidation test: DPPH radical scavenging activity
Assay type: biochemical
Conditions: positive control
Protocol: In order to investigate the anti-oxidant effect using Examples 1 to 7 and Comparative examples 1 to 2, the DPPH (2,2-diphenyl-1-picryl hydrazyl) radical scavenging activity was evaluated.
The Examples 1 to 7 and Comparative examples 1 to 2 were mixed with 55 μM DPPH solution 450 μl by concentration and then reacted at 4° C. for 30 minutes. After completing the reaction, each sample was placed in a 96-well plate and the absorbance of samples was measured at 520 nm using a micro-plate reader. Then, a sample untreated group was used as a control group, and the free radical scavenging activity (%) of the sample was calculated as Equation 1 below.
Then, as a positive control scavenging radicals, ascorbic acid was used, and the concentration of ascorbic acid when the free radical scavenging activity was 50% was shown as 1.63 μg/mL.
IC50 means the concentration of sample when the free radical scavenging activity of the treated sample is 50%. Table 5 above summarizes the free radical scavenging activity in 5 μg/mL of each sample. […] It could be confirmed that the DPPH radical scavenging activity of Example 5 was the most excellent among them.

O=C1O[C@H]([C@@H](O)CO)C(O)=C1O [Ascorbic acid, ascorbic acid]
IC50 (concentration when the free radical scavenging activity is 50%): 1.63 µg/mL (≈ 9.25 µM)
